pIC50: −log10 of the molar value. Where a name gives a salt, the structure may show the parent alone.

For assay [1], the target named is T1, glycogen synthase kinase-3 β (GSK-3β) (Homo sapiens, UniProt P49841).
T1 construct: gene GSK3B
Kind of assay: Z′-LYTE FRET peptide biochemical kinase assay, ATP at Km, concentration-dependent.

The target in a further assay is T2, aurora kinase A (Homo sapiens, UniProt O14965).
T2 construct: gene AURKA
T2 sequence (O14965 1-403): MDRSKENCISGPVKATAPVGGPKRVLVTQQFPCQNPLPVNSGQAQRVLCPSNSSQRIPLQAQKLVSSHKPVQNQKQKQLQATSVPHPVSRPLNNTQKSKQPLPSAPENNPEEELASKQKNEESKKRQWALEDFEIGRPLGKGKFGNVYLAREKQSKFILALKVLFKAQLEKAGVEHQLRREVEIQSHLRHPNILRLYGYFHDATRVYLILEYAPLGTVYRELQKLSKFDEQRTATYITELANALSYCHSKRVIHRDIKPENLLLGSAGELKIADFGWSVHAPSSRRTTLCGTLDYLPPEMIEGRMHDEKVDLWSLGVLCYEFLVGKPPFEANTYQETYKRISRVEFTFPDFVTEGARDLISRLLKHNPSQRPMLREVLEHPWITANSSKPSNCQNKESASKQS
The description is as above.

T1 sequence (P49841 whole entry): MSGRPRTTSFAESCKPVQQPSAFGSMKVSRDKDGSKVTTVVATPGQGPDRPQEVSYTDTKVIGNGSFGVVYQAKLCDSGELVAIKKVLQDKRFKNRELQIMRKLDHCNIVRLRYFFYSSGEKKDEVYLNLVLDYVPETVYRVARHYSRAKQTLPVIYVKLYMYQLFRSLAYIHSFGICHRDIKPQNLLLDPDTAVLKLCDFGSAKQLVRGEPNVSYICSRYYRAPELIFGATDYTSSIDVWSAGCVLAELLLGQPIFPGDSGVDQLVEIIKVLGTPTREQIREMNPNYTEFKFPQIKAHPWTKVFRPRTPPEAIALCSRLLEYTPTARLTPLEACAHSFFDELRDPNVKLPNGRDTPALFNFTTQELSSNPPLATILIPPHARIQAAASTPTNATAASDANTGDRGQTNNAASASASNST

Take `NCCO/N=C1/C(=C2/C(=O)Nc3ccc([N+](=O)[O-])cc32)Nc2ccc(O)cc21` [LDD-1819, (2Z,3E)-3-((2-aminoethoxy)imino)-5-hydroxy-5′-nitro-[2,3′-biindolinylidene]-2′-one hydrochloride]: the pIC50 (commonly the negative decadic logarithm of the IC50, by convention in mol/L) in assay [1] was 8.26; against aurora kinase A, 6.65.

Source of the values: PMC6717215, “Chemical characterization and biological activity data for a novel indirubin derivative, LDD-1819” (Data in Brief, 2019).
